These compounds were tested against wild-type human cardiac sodium channel, hNav1.5 (Homo sapiens, UniProt Q14524) (assay: Late INa screening assay (automated whole cell patch clamp, PatchXpress)). Conditions: compound at 1 μM; HEK293 cells expressing hNav1.5; late INa generated with 10 μM Tefluthrin (or 50 nM ATX II); read-out: LateINa_1 uM (percent block of late INa).
Sequence of wild-type human cardiac sodium channel, hNav1.5 (Q14524 whole entry): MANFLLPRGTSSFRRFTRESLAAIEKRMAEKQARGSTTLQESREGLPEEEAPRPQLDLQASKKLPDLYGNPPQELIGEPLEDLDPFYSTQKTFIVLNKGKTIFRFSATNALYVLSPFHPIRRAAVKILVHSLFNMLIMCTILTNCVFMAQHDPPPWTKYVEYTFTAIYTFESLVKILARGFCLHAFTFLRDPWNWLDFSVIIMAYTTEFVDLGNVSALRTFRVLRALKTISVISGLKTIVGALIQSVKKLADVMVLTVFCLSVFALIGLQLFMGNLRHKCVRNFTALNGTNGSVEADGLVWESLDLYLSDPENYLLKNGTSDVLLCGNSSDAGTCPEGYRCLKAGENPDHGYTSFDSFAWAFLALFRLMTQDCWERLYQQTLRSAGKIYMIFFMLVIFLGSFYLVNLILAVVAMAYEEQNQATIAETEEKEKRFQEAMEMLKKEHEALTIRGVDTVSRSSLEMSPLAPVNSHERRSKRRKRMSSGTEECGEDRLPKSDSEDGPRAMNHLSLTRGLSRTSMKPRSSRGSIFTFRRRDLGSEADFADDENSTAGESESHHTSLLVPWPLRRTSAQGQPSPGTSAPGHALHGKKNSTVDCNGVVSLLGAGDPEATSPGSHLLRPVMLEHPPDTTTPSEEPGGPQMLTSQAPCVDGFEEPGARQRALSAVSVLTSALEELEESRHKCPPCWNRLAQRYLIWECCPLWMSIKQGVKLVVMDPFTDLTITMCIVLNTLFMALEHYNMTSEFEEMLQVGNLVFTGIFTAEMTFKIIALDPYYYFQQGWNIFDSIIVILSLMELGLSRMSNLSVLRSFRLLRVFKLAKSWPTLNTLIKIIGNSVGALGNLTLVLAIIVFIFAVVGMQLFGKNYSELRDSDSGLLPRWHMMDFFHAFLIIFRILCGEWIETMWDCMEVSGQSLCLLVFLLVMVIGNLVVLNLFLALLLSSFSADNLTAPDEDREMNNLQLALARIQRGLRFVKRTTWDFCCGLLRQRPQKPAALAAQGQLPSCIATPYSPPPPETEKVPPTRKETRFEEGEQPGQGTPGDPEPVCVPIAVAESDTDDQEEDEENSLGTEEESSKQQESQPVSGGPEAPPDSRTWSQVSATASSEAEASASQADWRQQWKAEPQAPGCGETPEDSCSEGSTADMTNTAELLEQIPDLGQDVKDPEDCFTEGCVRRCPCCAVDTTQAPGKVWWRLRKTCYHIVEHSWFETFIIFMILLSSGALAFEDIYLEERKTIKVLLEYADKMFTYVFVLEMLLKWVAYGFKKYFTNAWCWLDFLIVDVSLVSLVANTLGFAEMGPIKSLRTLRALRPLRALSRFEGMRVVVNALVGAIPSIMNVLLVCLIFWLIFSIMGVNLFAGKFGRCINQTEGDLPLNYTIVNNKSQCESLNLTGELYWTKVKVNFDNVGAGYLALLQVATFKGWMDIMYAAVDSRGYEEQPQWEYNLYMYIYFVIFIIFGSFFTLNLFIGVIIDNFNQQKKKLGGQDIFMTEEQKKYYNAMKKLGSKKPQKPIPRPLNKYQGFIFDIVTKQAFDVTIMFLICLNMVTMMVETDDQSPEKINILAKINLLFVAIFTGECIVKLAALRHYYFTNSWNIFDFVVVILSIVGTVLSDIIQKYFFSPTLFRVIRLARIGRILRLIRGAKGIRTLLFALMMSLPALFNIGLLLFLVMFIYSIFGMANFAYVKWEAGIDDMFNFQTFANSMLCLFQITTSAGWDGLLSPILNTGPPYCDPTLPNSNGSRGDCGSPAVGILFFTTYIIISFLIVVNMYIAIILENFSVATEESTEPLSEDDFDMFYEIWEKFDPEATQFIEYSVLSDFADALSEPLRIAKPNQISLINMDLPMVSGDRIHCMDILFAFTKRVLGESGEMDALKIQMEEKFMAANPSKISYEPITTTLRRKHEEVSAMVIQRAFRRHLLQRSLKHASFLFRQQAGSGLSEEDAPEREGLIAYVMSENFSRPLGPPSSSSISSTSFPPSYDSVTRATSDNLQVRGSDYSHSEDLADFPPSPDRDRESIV
Type: cell-based
Procedure, shortened: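 Late sodium current through wild-type human hNav1.5 stably expressed in HEK293 cells (no beta subunits) was recorded by automated whole-cell patch clamp on a PatchXpress 7000A at 24-27° C. Late INa was induced with 10 μM Tefluthrin or 50 nM ATX II. Cells were stepped from −120 mV to −20 mV for 250 ms at 0.1 Hz, and percent block was normalized to current in Na-free extracellular solution.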
`FC(F)(F)c1nnc2ccc(-c3ccc(OC4CC4)nc3)cn12` [BHN-180, 6-[6-(cyclopropyloxy)pyridin-3-yl]-3-(trifluoromethyl)[1,2,4]triazolo[4,3-a]pyridine] showed an inhibition at 1 µM of 21.1%. In the case of `FC(F)(F)c1ncc2ccc(-c3nc4ccccc4s3)cn12` [BHN-213, 2-[3-(trifluoromethyl)imidazo[1,5-a]pyridin-6-yl]-1,3-benzothiazole], the inhibition at 1 µM is reported as 24%. With `FC(F)(F)Oc1ccc(-c2ccc3nnc(C(F)(F)OCc4cc(C(F)(F)F)nc5ccccc45)n3c2)cc1` [BHN-290, 4-[(difluoro{6-[4-(trifluoromethoxy)phenyl][1,2,4]triazolo[4,3-a]pyridin-3-yl}methoxy)methyl]-2-(trifluoromethyl)quinoline] the inhibition at 1 µM was 34.6%. `FC(F)(F)Oc1ccc(-c2ccc3nnc(C(F)(F)OCc4nc(-c5ccccc5)oc4C(F)(F)F)n3c2)cc1` [BHN-313, 3-(difluoro{[2-phenyl-5-(trifluoromethyl)-1,3-oxazol-4-yl]methoxy}methyl)-6-[4-(trifluoromethoxy)phenyl][1,2,4]triazolo[4,3-a]pyridine] gave an inhibition at 1 µM of 50%. `Cc1cc(-c2ccc(OC(F)(F)F)cc2)cn2c(C(F)(F)F)nnc12` [BHN-103, 8-methyl-6-[4-(trifluoromethoxy)phenyl]-3-(trifluoromethyl)[1,2,4]triazolo[4,3-a]pyridine] showed an inhibition at 1 µM of 40.7%. Work on `FC(F)(F)c1nnc2ccc(-c3ccc(OCC4CC4)cc3)cn12` [BHN-151, 6-[4-(cyclopropylmethoxy)phenyl]-3-(trifluoromethyl)[1,2,4]triazolo[4,3-a]pyridine] yielded an inhibition at 1 µM of 43.1%. For `FC(F)(F)c1ccc(-c2ccc3nnc(C(F)(F)OCc4cc(-c5ccccc5)on4)n3c2)cn1` [BHN-319, 3-{difluoro[(5-phenyl-1,2-oxazol-3-yl)methoxy]methyl}-6-[6-(trifluoromethyl)pyridin-3-yl][1,2,4]triazolo[4,3-a]pyridine], the inhibition at 1 µM was 30.5%. `COc1ccc(-c2ccc3cnc(C(F)(F)F)n3c2)cc1` [BHN-30, 6-(4-methoxyphenyl)-3-(trifluoromethyl)imidazo[1,5-a]pyridine] showed an inhibition at 1 µM of 24.6%. With `CN(C)CCOCC(F)(F)c1nnc2ccc(-c3ccc(OC(F)(F)F)cc3)cn12` [BHN-150, 2-(2,2-difluoro-2-{6-[4-(trifluoromethoxy)phenyl][1,2,4]triazolo[4,3-a]pyridin-3-yl}ethoxy)-N,N-dimethylethanamine] the inhibition at 1 µM was 15.6%. `Cc1oc(-c2ccccc2)nc1COC(F)(F)c1nnc2ccc(-c3ccc(OC(F)(F)F)cc3)cn12` [BHN-229, 3-{difluoro[(5-methyl-2-phenyl-1,3-oxazol-4-yl)methoxy]methyl}-6-[4-(trifluoromethoxy)phenyl][1,2,4]triazolo[4,3-a]pyridine] gave an inhibition at 1 µM of 72.2%. `CC(C)(O)COCC(F)(F)c1nnc2ccc(-c3ccc(OC(F)(F)F)cc3)cn12` [BHN-205, 1-(2,2-difluoro-2-{6-[4-(trifluoromethoxy)phenyl][1,2,4]triazolo[4,3-a]pyridin-3-yl}ethoxy)-2-methylpropan-2-ol] showed an inhibition at 1 µM of 25.2%. `FC(F)(F)Oc1ccc(-c2ccc3nnc(C#CC4CC4)n3c2)cc1` [BHN-171, 3-(cyclopropylethynyl)-6-[4-(trifluoromethoxy)phenyl][1,2,4]triazolo[4,3-a]pyridine] showed an inhibition at 1 µM of 49.3%. Work on `CCOC(=O)COCC(F)(F)c1nnc2ccc(-c3ccc(OC(F)(F)F)cc3)cn12` [BHN-167, ethyl (2,2-difluoro-2-{6-[4-(trifluoromethoxy)phenyl][1,2,4]triazolo[4,3-a]pyridin-3-yl}ethoxy)acetate] yielded an inhibition at 1 µM of 45.8%. Work on `CCOc1cc(OC(F)(F)F)ccc1-c1ccc2nnc(C(F)(F)F)n2c1` [BHN-222, 6-[2-ethoxy-4-(trifluoromethoxy)phenyl]-3-(trifluoromethyl)[1,2,4]triazolo[4,3-a]pyridine] yielded an inhibition at 1 µM of 65.3%. With `COCC(F)(F)c1nnc2ccc(-c3ccc(OC(F)(F)F)cc3)cn12` [BHN-74, 3-(1,1-difluoro-2-methoxyethyl)-6-[4-(trifluoromethoxy)phenyl][1,2,4]triazolo[4,3-a]pyridine] the inhibition at 1 µM was 46.9%. Compound `FC(F)(F)Oc1ccc(-c2ccc3nnc(C(F)(F)OCc4ccncc4)n3c2)cc1` [BHN-149, 3-[difluoro(pyridin-4-ylmethoxy)methyl]-6-[4-(trifluoromethoxy)phenyl][1,2,4]triazolo[4,3-a]pyridine] has an inhibition at 1 µM of 34%. `Cn1nc(COC(F)(F)c2nnc3ccc(-c4ccc(OC(F)(F)F)cc4)cn23)c2ccccc21` [BHN-307, 3-{difluoro[(1-methyl-1H-indazol-3-yl)methoxy]methyl}-6-[4-(trifluoromethoxy)phenyl][1,2,4]triazolo[4,3-a]pyridine] showed an inhibition at 1 µM of 68.5%. `Cc1cc(COC(F)(F)c2nnc3ccc(-c4ccc(OC(F)(F)F)cc4)cn23)no1` [BHN-193, 3-{difluoro[(5-methyl-1,2-oxazol-3-yl)methoxy]methyl}-6-[4-(trifluoromethoxy)phenyl][1,2,4]triazolo[4,3-a]pyridine] gave an inhibition at 1 µM of 54.7%. Work on `CC#CCOC(F)(F)c1nnc2ccc(-c3ccc(OC(F)(F)F)cc3)cn12` [BHN-293, 3-[(but-2-yn-1-yloxy)(difluoro)methyl]-6-[4-(trifluoromethoxy)phenyl][1,2,4]triazolo[4,3-a]pyridine] yielded an inhibition at 1 µM of 80.6%. Work on `FC(F)(F)Oc1ccc(-c2ccc3nnc(C(F)(F)OCc4ccccc4-n4cccn4)n3c2)cc1` [BHN-328, 3-(difluoro{[2-(1H-pyrazol-1-yl)benzyl]oxy}methyl)-6-[4-(trifluoromethoxy)phenyl][1,2,4]triazolo[4,3-a]pyridine] yielded an inhibition at 1 µM of 70.9%. For `FC(F)(F)COc1ccc(-c2ccc3nnc(C(F)(F)OCc4cc(-c5ccccc5)on4)n3c2)cn1` [BHN-324, 3-{difluoro[(5-phenyl-1,2-oxazol-3-yl)methoxy]methyl}-6-[6-(2,2,2-trifluoroethoxy)pyridin-3-yl][1,2,4]triazolo[4,3-a]pyridine], the inhibition at 1 µM was 46.3%. For `FC(F)c1nnc2cnc(-c3ccc(OC(F)(F)F)cc3)cn12` [BHN-23, 3-(difluoromethyl)-6-[4-(trifluoromethoxy)phenyl][1,2,4]triazolo[4,3-a]pyrazine], the inhibition at 1 µM was 53.5%. Compound `N#Cc1nc(C(F)(F)F)n2cc(-c3ccc(OC(F)(F)F)cc3)ccc12` [BHN-117, 6-[4-(trifluoromethoxy)phenyl]-3-(trifluoromethyl)imidazo[1,5-a]pyridine-1-carbonitrile] has an inhibition at 1 µM of 66.3%. `OCc1nnc2ccc(-c3ccc(OC(F)(F)F)cc3)cn12` [BHN-130, {6-[4-(trifluoromethoxy)phenyl][1,2,4]triazolo[4,3-a]pyridin-3-yl}methanol] showed an inhibition at 1 µM of 21.9%. Compound `FC(F)(F)c1nnc2ccc(-c3ccc(Sc4ccccc4)cc3)cn12` [BHN-119, 6-[4-(phenylsulfanyl)phenyl]-3-(trifluoromethyl)[1,2,4]triazolo[4,3-a]pyridine] has an inhibition at 1 µM of 70.5%.

Same assay, conditions: compound at 10 μM; HEK293 cells expressing hNav1.5; late INa generated with 10 μM Tefluthrin (or 50 nM ATX II); read-out: LateINa_10 uM (percent block of late INa)
`Cc1nnc(-c2ccc(-c3ccc4nnc(C(F)(F)F)n4c3)cc2)o1` [BHN-71, 6-[4-(5-methyl-1,3,4-oxadiazol-2-yl)phenyl]-3-(trifluoromethyl)[1,2,4]triazolo[4,3-a]pyridine] was tested, and the inhibition at 10 µM was 20.5%. `Cc1nnc2c(N)cc(-c3ccc(OC(F)(F)F)cc3)cn12` [BHN-69, 3-methyl-6-[4-(trifluoromethoxy)phenyl][1,2,4]triazolo[4,3-a]pyridin-8-amine] gave an inhibition at 10 µM of 32.1%. Work on `COc1ccc(-c2ccc3nnc(-c4ccc(C#N)cc4)n3n2)cc1` [BHN-44, 4-[6-(4-methoxyphenyl)[1,2,4]triazolo[4,3-b]pyridazin-3-yl]benzonitrile] yielded an inhibition at 10 µM of 15%. `CS(=O)(=O)c1ccc(-c2nnc3ccc(-c4ccc(Oc5ccccc5)cc4)nn23)cc1` [BHN-47, 3-[4-(methylsulfonyl)phenyl]-6-(4-phenoxyphenyl)[1,2,4]triazolo[4,3-b]pyridazine] showed an inhibition at 10 µM of 50.7%. Work on `FC(F)(F)c1nnc2ccc(-c3ccc(Oc4ccccc4)cc3)nn12` [BHN-11, 6-(4-phenoxyphenyl)-3-(trifluoromethyl)[1,2,4]triazolo[4,3-b]pyridazine] yielded an inhibition at 10 µM of 44.7%. In the case of `COc1ccc(-c2ccc3cnc(C(F)(F)F)n3c2)cc1` [BHN-30, 6-(4-methoxyphenyl)-3-(trifluoromethyl)imidazo[1,5-a]pyridine], the inhibition at 10 µM is reported as 77.3%. With `FC(F)(F)c1nnc2ccc(-c3ccc(Oc4ccccc4)cc3)cn12` [BHN-332, 6-(4-phenoxyphenyl)-3-(trifluoromethyl)[1,2,4]triazolo[4,3-a]pyridine] the inhibition at 10 µM was 83.5%. `COCC(F)(F)c1nnc2ccc(-c3ccc(OC(F)(F)F)cc3)cn12` [BHN-74, 3-(1,1-difluoro-2-methoxyethyl)-6-[4-(trifluoromethoxy)phenyl][1,2,4]triazolo[4,3-a]pyridine] gave an inhibition at 10 µM of 67%. `CS(=O)(=O)Nc1ccccc1-c1nnc2ccc(-c3ccc(OC(F)(F)F)cc3)cn12` [BHN-93, N-(2-{6-[4-(trifluoromethoxy)phenyl][1,2,4]triazolo[4,3-a]pyridin-3-yl}phenyl)methanesulfonamide] showed an inhibition at 10 µM of 21%. Work on `CCOC(=O)c1cccc(-c2ccc3nnc(-c4cccc(C(=O)OCC)c4)n3c2)c1` [BHN-80, diethyl 3,3′-[1,2,4]triazolo[4,3-a]pyridine-3,6-diyldibenzoate] yielded an inhibition at 10 µM of 59%. With `FC(F)(F)c1nnc2ccc(-c3ccc(-n4cncn4)cc3)cn12` [BHN-61, 6-[4-(1H-1,2,4-triazol-1-yl)phenyl]-3-(trifluoromethyl)[1,2,4]triazolo[4,3-a]pyridine] the inhibition at 10 µM was 23.5%. `Fc1cc(-c2ccc3nnc(C(F)(F)F)n3c2)ccc1Cl` [BHN-14, 6-(4-chloro-3-fluorophenyl)-3-(trifluoromethyl)[1,2,4]triazolo[4,3-a]pyridine] showed an inhibition at 10 µM of 28.3%. With `FC(F)(F)c1nnc2cnc(-c3ccc(Oc4ccccc4)cc3)cn12` [BHN-16, 6-(4-phenoxyphenyl)-3-(trifluoromethyl)[1,2,4]triazolo[4,3-a]pyrazine] the inhibition at 10 µM was 54.3%. `FC(F)c1nnc2cnc(-c3ccc(OC(F)(F)F)cc3)cn12` [BHN-23, 3-(difluoromethyl)-6-[4-(trifluoromethoxy)phenyl][1,2,4]triazolo[4,3-a]pyrazine] gave an inhibition at 10 µM of 74.7%.
